Laboratory results taken from patent US20230391781A1, “MALT1 MODULATORS AND USES THEREOF” (Rheos Medicines, Inc., priority 2020, published 2023).
pIC50: −log10 of the molar value.

Assays:
full length MALT1 = full length MALT1 (Homo sapiens (Human), UniProt Q9UDY8); experiment: MALT1 Biochemical Assay; conditions: 15 nM enzyme, 30 μM peptide substrate Ac-Leu-Arg-Ser-Arg-Rh110-dPro, 30 min pre-incubation, 60 min reaction; mean value if tested more than once
Experimental: Inhibitor potency was evaluated by measuring enzymatic activity of full length MALT1 at varying concentrations of compound. The enzymatic assay consists of a single substrate reaction that monitors the release of a fluorescent dye upon cleavage of the peptide substrate. […] The assay buffer consists of 50 mM Hepes, pH 7.5, 0.8 M sodium citrate, 1 mM DTT, 0.004% tween-20, and 0.005% bovine serum albumin (BSA). […] The reaction was quenched after 60 minutes with the addition of iodoacetate at a final concentration of 10 mM. Total fluorescence was measured using an Envision (PerkinElmer) with fluorescence excitation at 485 nm and emission at […].
For potency determination, 1 μL of serially diluted compound (in 100% DMSO) was pre-incubated with 40 μL of enzyme for 30 minutes. The reaction was initiated with the addition of 10 μL of peptide substrate. The relative fluorescence units were transformed to percent inhibition by using 0% and 100% inhibition controls as reference. […] IC50 values were calculated by fitting the concentration-response curves to a four-parameter logistic equation in GraphPad Prism.

[1] = test system: IL-2 in Jurkat (ATCC, clone E6.1) cells stimulated with anti-CD3/28/2; experiment: Jurkat IL-2 Assay; type: cell-based; conditions: Homo sapiens; IL-2 inhibition, Jurkat cells, 30 min compound then anti-CD3/28/2 stimulation for 24 hours; mean value if tested more than once; read-out: IC50
Experimental: Inhibition was determined in a cell-based assay using Jurkat (ATCC, clone E6.1), an immortalized T-cell line, exposed to a dose response of compound and assessed for viability, and Il-2 inhibition by ELISA. Cells were cultured in RPMI/10% FBS (Invitrogen 11875093, Atlanta Biologicals S12450H), maintained below 3E6/mL and only used in assays while below passage 25. Compounds were stamped by ECHO onto 384w plates (PerkinElmer Culturplate, 6007680). The cells were plated in fresh media on top of compound and incubated for 30 minutes before stimulation with soluble anti-CD3/28/2 (Stemcell, 10970) for 24 hours. Supernatant was collected and assessed for Il-2 (MSD, 384w, L21SA-1). To assess viability of cells treated with compound, cells were lysed with CTG reagent (Promega, G7570), and measured by luminometer. […] IC50s calculated using 4-parameter fit in GraphPad Prism.
In this table, “A” indicates IC50 of less than 0.1 μM; “B” indicates IC50 from 0.1 μM up to 1 μM; and “C” indicates IC50 of greater than 1 μM. “N/A” indicates not tested. For a compound that was tested in more than one experiment, the result shown represents the mean value.

full length MALT1, sequence (Q9UDY8 whole entry): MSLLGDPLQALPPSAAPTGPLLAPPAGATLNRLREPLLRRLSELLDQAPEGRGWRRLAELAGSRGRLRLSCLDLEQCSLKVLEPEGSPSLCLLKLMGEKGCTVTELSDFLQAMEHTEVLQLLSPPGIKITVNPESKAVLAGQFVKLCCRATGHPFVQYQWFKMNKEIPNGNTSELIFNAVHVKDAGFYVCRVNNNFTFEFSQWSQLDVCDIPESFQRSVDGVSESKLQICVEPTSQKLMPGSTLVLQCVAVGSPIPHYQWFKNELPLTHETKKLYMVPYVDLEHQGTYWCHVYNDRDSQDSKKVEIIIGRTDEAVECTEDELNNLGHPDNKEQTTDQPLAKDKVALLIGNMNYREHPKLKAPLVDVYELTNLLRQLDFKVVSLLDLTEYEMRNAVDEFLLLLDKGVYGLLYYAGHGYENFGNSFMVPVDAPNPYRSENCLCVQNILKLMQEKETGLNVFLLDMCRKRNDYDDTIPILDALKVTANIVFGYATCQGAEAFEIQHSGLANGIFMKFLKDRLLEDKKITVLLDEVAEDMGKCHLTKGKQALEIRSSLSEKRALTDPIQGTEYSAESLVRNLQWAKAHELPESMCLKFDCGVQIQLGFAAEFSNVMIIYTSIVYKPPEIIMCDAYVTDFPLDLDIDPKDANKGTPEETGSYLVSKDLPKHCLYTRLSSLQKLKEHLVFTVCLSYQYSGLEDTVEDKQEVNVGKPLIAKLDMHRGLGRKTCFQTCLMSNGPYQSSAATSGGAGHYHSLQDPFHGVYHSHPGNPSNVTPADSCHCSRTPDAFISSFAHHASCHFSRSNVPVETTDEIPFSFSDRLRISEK

| Structure (SMILES) | pIC50 (full length MALT1) | pIC50 [1] |
| --- | --- | --- |
| COC(=O)[C@H]1CC[C@H](C(=O)N(C)[C@@H](c2ccc(Nc3cnc4nc(Cl)nn4c3[C@H](C)OC)cc2)C(F)(F)F)CC1 [Compound 1.4, methyl(1r,4r)-4-{[(1S)-1-[4-({2-chloro-7-[(1S)-1-methoxyethyl]-[1,2,4]triazolo[1,5-a]pyrimidin-6-yl}amino)phenyl]-2,2,2-trifluoroethyl] (methyl)carbamoyl}cyclohexane-1-carboxylate] | 6.00 to 7.00 | 6.00 to 7.00 |
| CO[C@@H](C)c1c(Nc2ccc([C@H](N(C)C(=O)[C@H]3C[C@H](C#N)C3)C(F)(F)F)cc2)cnc2nc(Cl)nn12 [Compound 1.9, (1r,3S)—N—((S)-1-(4-((2-chloro-7-((S)-1-methoxyethyl)-[1,2,4]triazolo[1,5-a]pyrimidin-6-yl)amino)phenyl)-2,2,2-trifluoroethyl)-3-cyano-N-methylcyclobutane-1-carboxamide] | 6.00 to 7.00 | 6.00 to 7.00 |
| CO[C@@H](C)c1c(Nc2ccc([C@H](N(C)C(=O)C3CCN(C(=O)OC(C)(C)C)CC3)C(F)(F)F)cc2)cnc2nc(Cl)nn12 [Compound 1.10, tert-butyl 4-{[(1S)-1-[4-({2-chloro-7-[(1S)-1-methoxyethyl]-[1,2,4]triazolo[1,5-a]pyrimidin-6-yl}amino)phenyl]-2,2,2-trifluoroethyl](methyl)carbamoyl}piperidine-1-carboxylate] | 6.00 to 7.00 | 6.00 to 7.00 |
| CO[C@@H](C)c1c(Nc2ccc([C@H](N(C)C(=O)C3CCCN(C(=O)OC(C)(C)C)C3)C(F)(F)F)cc2)cnc2nc(Cl)nn12 (stereo partly drawn) [Compound 1.11, Tert-butyl 3-{[(1S)-1-[4-({2-chloro-7-[(1S)-1-methoxyethyl]-[1,2,4]triazolo[1,5-a]pyrimidin-6-yl}amino)phenyl]-2,2,2-trifluoroethyl](methyl)carbamoyl}piperidine-1-carboxylate] | 6.00 to 7.00 | < 6.00 |
| CO[C@@H](C)c1c(Nc2ccc([C@H](N(C)C(=O)C3CCN(C(=O)OC(C)(C)C)C3)C(F)(F)F)cc2)cnc2nc(Cl)nn12 (stereo partly drawn) [Compound 1.12, Tert-butyl 3-{[(1S)-1-[4-({2-chloro-7-[(1S)-1-methoxyethyl]-[1,2,4]triazolo[1,5-a]pyrimidin-6-yl}amino)phenyl]-2,2,2-trifluoroethyl](methyl)carbamoyl}pyrrolidine-1-carboxylate] | 6.00 to 7.00 | < 6.00 |
| CO[C@@H](C)c1c(Nc2ccc([C@H](N(C)C(=O)C3CCC(CNC(=O)OC(C)(C)C)CC3)C(F)(F)F)cc2)cnc2nc(Cl)nn12 (stereo partly drawn) [Compound 1.13, tert-butyl N-[(4-{[(1S)-1-[4-({2-chloro-7-[(1S)-1-methoxyethyl]-[1,2,4]triazolo[1,5-a]pyrimidin-6-yl}amino)phenyl]-2,2,2-trifluoroethyl](methyl)carbamoyl}cyclohexyl)methyl]carbamate] | 6.00 to 7.00 | 6.00 to 7.00 |
| CO[C@@H](C)c1c(Nc2ccc(C(C)N(C)C(=O)C3CCC3)cc2)cnc2nc(Cl)nn12 (stereo partly drawn) [Compound 1.20, N-{1-[4-({2-chloro-7-[(1S)-1-methoxyethyl]-[1,2,4]triazolo[1,5-a]pyrimidin-6-yl}amino)phenyl]ethyl}-N-methylcyclobutanecarboxamide] | < 6.00 | < 6.00 |
| CO[C@@H](C)c1c(Nc2ccc(C(C)N(C)C(=O)C3CCCCC3)cc2)cnc2nc(Cl)nn12 (stereo partly drawn) [Compound 1.21, N-{1-[4-({2-chloro-7-[(1S)-1-methoxyethyl]-[1,2,4]triazolo[1,5-a]pyrimidin-6-yl}amino)phenyl]ethyl}-N-methylcyclohexanecarboxamide] | < 6.00 | < 6.00 |
| CO[C@@H](C)c1c(Nc2ccc(C(C)N(C)C(=O)C3CCCC3)cc2)cnc2nc(Cl)nn12 (stereo partly drawn) [Compound 1.22, N-{1-[4-({2-chloro-7-[(1S)-1-methoxyethyl]-[1,2,4]triazolo[1,5-a]pyrimidin-6-yl}amino)phenyl]ethyl}-N-methylcyclopentanecarboxamide] | < 6.00 | < 6.00 |
| CO[C@@H](C)c1c(Nc2ccc(C(C)N(C)C(=O)C3CC3)cc2)cnc2nc(Cl)nn12 (stereo partly drawn) [Compound 1.23, N-{1-[4-({2-chloro-7-[(1S)-1-methoxyethyl]-[1,2,4]triazolo[1,5-a]pyrimidin-6-yl}amino)phenyl]ethyl}-N-methylcyclopropanecarboxamide] | < 6.00 | < 6.00 |
| CO[C@@H](C)c1c(Nc2ccc(C(C)N(C)C(C)=O)cc2)cnc2nc(Cl)nn12 (stereo partly drawn) [Compound 1.24, N-{1-[4-({2-chloro-7-[(1S)-1-methoxyethyl]-[1,2,4]triazolo[1,5-a]pyrimidin-6-yl}amino)phenyl]ethyl}-N-methylacetamide] | < 6.00 | < 6.00 |
| CO[C@@H](C)c1c(Nc2ccc(C(N(C)C(C)=O)C(F)(F)F)cc2)cnc2nc(Cl)nn12 (stereo partly drawn) [Compound 1.25, N-{1-[4-({2-chloro-7-[(1S)-1-methoxyethyl]-[1,2,4]triazolo[1,5-a]pyrimidin-6-yl}amino)phenyl]-2,2,2-trifluoroethyl}-N-methylacetamide] | 6.00 to 7.00 | < 6.00 |

More lines, now with the values ahead:

| pIC50 (full length MALT1) | pIC50 [1] | Structure (SMILES) |
| --- | --- | --- |
| 6.00 to 7.00 | 6.00 to 7.00 | CO[C@@H](C)c1c(Nc2ccc([C@H](N(C)C(C)=O)C(F)(F)F)cc2)cnc2nc(Cl)nn12 [Compound 1.2, N-[(1S)-1-[4-({2-chloro-7-[(1S)-1-methoxyethyl]-[1,2,4]triazolo[1,5-a]pyrimidin-6-yl}amino)phenyl]-2,2,2-trifluoroethyl]-N-methylacetamide] |
| 6.00 to 7.00 | 6.00 to 7.00 | CO[C@@H](C)c1c(Nc2ccc([C@H](N(C)C(=O)C3CCCCO3)C(F)(F)F)cc2)cnc2nc(Cl)nn12 (stereo partly drawn) [Compound 1.3, N-[(1S)-1-[4-({2-chloro-7-[(1S)-1-methoxyethyl]-[1,2,4]triazolo[1,5-a]pyrimidin-6-yl}amino)phenyl]-2,2,2-trifluoroethyl]-N-methyloxane-2-carboxamide] |
| > 7.00 | 6.00 to 7.00 | CO[C@@H](C)c1c(Nc2ccc([C@H](N(C)C(=O)C3CCSCC3)C(F)(F)F)cc2)cnc2nc(Cl)nn12 [Compound 1.5, N-[(1S)-1-[4-({2-chloro-7-[(1S)-1-methoxyethyl]-[1,2,4]triazolo[1,5-a]pyrimidin-6-yl}amino)phenyl]-2,2,2-trifluoroethyl]-N-methylthiane-4-carboxamide] |
| > 7.00 | 6.00 to 7.00 | CO[C@@H](C)c1c(Nc2ccc([C@H](N(C)C(=O)C3CCOC3)C(F)(F)F)cc2)cnc2nc(Cl)nn12 (stereo partly shown) [Compound 1.6] |
| > 7.00 | 6.00 to 7.00 | CO[C@@H](C)c1c(Nc2ccc([C@H](N(C)C(=O)C3CCC4(CC3)OCCO4)C(F)(F)F)cc2)cnc2nc(Cl)nn12 [Compound 1.7, N-[(1S)-1-[4-({2-chloro-7-[(1S)-1-methoxyethyl]-[1,2,4]triazolo[1,5-a]pyrimidin-6-yl}amino)phenyl]-2,2,2-trifluoroethyl]-N-methyl-1,4-dioxaspiro[4.5]decane-8-carboxamide] |
| > 7.00 | 6.00 to 7.00 | CO[C@@H](C)c1c(Nc2ccc([C@H](N(C)C(=O)[C@H]3CC[C@H](OC)CC3)C(F)(F)F)cc2)cnc2nc(Cl)nn12 [Compound 1.14, (1r,4S)—N—((S)-1-(4-((2-chloro-7-((S)-1-methoxyethyl)-[1,2,4]triazolo[1,5-a]pyrimidin-6-yl)amino)phenyl)-2,2,2-trifluoroethyl)-4-methoxy-N-methylcyclohexane-1-carboxamide] |
| > 7.00 | 6.00 to 7.00 | COC(=O)NC1CCC(C(=O)N(C)[C@@H](c2ccc(Nc3cnc4nc(Cl)nn4c3[C@H](C)OC)cc2)C(F)(F)F)CC1 (stereo partly drawn) [Compound 1.16, methyl (4-(((S)-1-(4-((2-chloro-7-((S)-1-methoxyethyl)-[1,2,4]triazolo[1,5-a]pyrimidin-6-yl)amino)phenyl)-2,2,2-trifluoroethyl)(methyl)carbamoyl)cyclohexyl)carbamate] |
| > 7.00 | 6.00 to 7.00 | CO[C@@H](C)c1c(Nc2ccc([C@H](N(C)C(=O)C3CCC(NC(C)=O)CC3)C(F)(F)F)cc2)cnc2nc(Cl)nn12 (stereo partly drawn) [Compound 1.17, N-[(1S)-1-[4-({2-chloro-7-[(1S)-1-methoxyethyl]-[1,2,4]triazolo[1,5-a]pyrimidin-6-yl}amino)phenyl]-2,2,2-trifluoroethyl]-4-acetamido-N-methylcyclohexane1-carboxamide] |
